Experimental data from US20070191450A1, “Use of Benzo-Heteroaryl Sulfamide Derivatives for the Treatment of Mania and Bipolar Disorder” (priority 2006, published 2007).

Tests used:
[1] = system: hippocampal kindled seizures; test: Rat Hippocampal Kindling Model (Interruption of Kindled State); format: in vivo; conditions: for ED50: Rattus norvegicus, ip, read-out: ED50 = median therapeutic dose; for After-Discharge Duration (% of control) / Mean Seizure Score: i.p., line of the ED50 dose; for effect on seizure activity: reference drugs
Experimental: In the present rapid hippocampal kindling model adult male Sprague-Dawley rats (300-400 g) were surgically implanted with bipolar electrodes placed in the hippocampus. […] One week later, the rats received 2-3 supra-threshold stimulations delivered every 30 min before compound treatment to ensure stability of the behavioral seizure stage and after-discharge duration. Fifteen minutes after the last stimulation, a single dose of vehicle or test compound was administered i.p (intraperitoneally). After 15 min, each rat was then stimulated every 30 min for 3 to 4 h. After each stimulation, individual seizure scores and after-discharge durations were recorded. The group mean±SEM were calculated for each parameter. Eight rats per dose and a minimum of four doses were used to establish an ED50 value. Efficacy was measured as the ability of a compound to modify the seizure score (severity of spread) and after-discharge duration (ADD; excitability) of the generalized seizures.
Thus, according to the theories presented in current literature (Ghaemi, S. N., Boiman, E. E., and Goodwin, F. K., Soc. of Bio. Psychiatry, (1999), vol. 45, pp 137-144; Stoll, A. L., and Severus, W. E., Harvard Rev. Psychiatry, July/August (1996), Vol. 4, No. 2, pp 77-89) a decrease in seizure score and/or ADD may also be predictive of the ability of a test compound to treat the cycling associated with bipolar disorder.

[2] = Median toxic dose (TD50), i.p., listed with the Rat Hippocampal Kindling Test; conditions: Sprague-Dawley, in vivo, ip, Table 4 dose column
dominant rats = test: Dominant-Submissive assay: Reduction of Dominant Behavior Model (RDBM); format: in vivo, rat; conditions: for treatment time after which dominant behavior was significantly reduced: historical data, FIG. 2, i.p.: lithium 100 mg/kg, carbamazepine 20 mg/kg, VPA 30 mg/kg
Experimental: Dominance and submissiveness, defined in a competition test and measured as the relative success of two food-restricted rats to gain access to a feeder, form a behavioral paradigm—the Dominant Submissive Relationship (DSR). This paradigm results in two models which are predictive of ability of test compounds (drugs) to treat mood disorders.
Test compounds are evaluated for either their ability to inhibit the dominant behavior of rats taking food at the expense of an opponent (reduction of dominant behavior model or RDBM) and thus their potential as treatments for mania; or for their ability to increase the competitive behavior of submissive rats losing such encounters (reduction of submissive behavior model or RSBM) and thus their potential as treatments for depression; (Malatynska, E., and Knapp, R. J., Neuroscience and Biobehavioral Review, 29 (2005) 715-737).
The Reduction of Dominant Behavior Model (RDBM) test, wherein the dominant animals are treated with test compound, is predictive of the ability of the test compound to treat mani. This model was applied to Compound #1 of the present invention, according to the following procedure.
(§1) Male Sprague Dawley rats (140 to 160 g) from Charles River Laboratories Wilmington, Mass. were used in this assay. Shipments of rats were received at two-week intervals. Each shipment went through five-day quarantine, one-week acclimation period, and one-week selection process, followed by five-weeks of drug or vehicle treatment to those pairs selected.
(§2) Rats were housed four per cage. Access to food was restricted to one hour per day after testing on Monday through Thursday. After testing on Friday, rats had free access to food until being fasted again on Sunday. At no time were the rats deprived of water. The food deprivation periods used had little effect on weight gain as the average weight of rats was about 300 g at the end of the study. At the conclusion of experiment rats were sacrificed by decapitation, the trunk blood and brains were collected for in vitro experiments and drug concentration measurements.
(§3) The basic testing apparatus consisted of two chambers connected with a tunnel only large enough to allow one rat to pass through at a time. On the floor, at the mid-point of the tunnel was a container of sweetened milk. […] During the five-minute daily sessions, time spent in the feeder zone by each rat was recorded by the video tracking software and saved into a text file.
(§4) The test began with a random assignment of rats into pairs. […] The time spent in the feeder zone by each animal was recorded. […] Finally, there must have been no “reversals” during the pair selection week where the putative submissive rat out-scored its dominant partner on isolated occasions. […]

[3] = system: hippocampal kindled seizures; conditions: background statement; cited from earlier work
[4] = system: LTG-resistant amygdala kindled seizures; conditions: 5 mg/kg, i.p., q.d.; cited from earlier work
[5] = system: amygdala kindled seizures; conditions: i.p., cited from earlier work
submissive rats = test: Dominant-Submissive assay: Reduction of Submissive Behavior Model (RSBM); format: in vivo, rat
Experimental: The Reduction of Submissive Behavior Model (RSBM) test, wherein the submissive animals are treated with test compound, is predictive of the ability of the test compound to treat depression. This model was applied to Compound #1 of the present invention, according to the following procedure.
as §1, §2, §3, §4
Significant differences between time spent on the feeder by dominant and submissive rats were determined by ANOVA using GraphPad Prism software (GraphPad Software, Inc. San Diego, Calif.) followed by a two-tailed t-test (P<0.05). […]

[6] = system: amygdala kindled seizures; test: Amygdala Kindling Assay (Kindling Prevention); format: in vivo, rat
[7] = system: LTG-resistant amygdala kindled seizures; test: Lamotrigine Resistant Amygdala Kindled Rat Model (Interruption of Kindled State); format: in vivo; conditions: 100 mg/kg, i.p.
Experimental: Amygdala kindling is less severe than hippocampal kindling, such that many AEDs are effective against amygdala kindled seizures, but are ineffective against hippocampal kindled seizures.
In the LTG-resistant amygdala kindling model, rats were dosed with LTG (5 mg/kg, i.p., q.d.) during the acquisition phase of kindling. […] Once kindled (supra-threshold stimulation of 150 μA biphasic 60 Hz current pulse for 1 second; ˜2 weeks), rats were re-challenged with a high dose of LTG (45 mg/kg, i.p.) one week later to insure resistance. After a 3-4 day wash out period, rats received 2-3 supra-threshold stimulations delivered every 30 min before compound treatment to ensure stability of the behavioral seizure stage and after-discharge duration. Fifteen minutes after the last stimulation, a single dose of vehicle or test compound was administered i.p. After 15 min, each rat was then stimulated every 30 min for 3 to 4 h. After each stimulation, individual seizure scores and after-discharge durations were recorded. The group mean±SEM was calculated for each parameter.

Row | Compound | ED50 [1] [mg/kg] | After-Discharge Duration (% of control) [1] | Mean Seizure Score [1] | effect on seizure activity [1] | TD50 [2] [mg/kg] | other results
1 | CCCC(CCC)C(=O)O [Valproic acid] | 350 | 3 ± 1.4% of control | 0.3 ± 0.3 | suppressed seizure activity, but at doses associated with toxicity | 316 | dose giving protection similar to Compound #1 (toxic doses) ([1]; rat, in vivo): > 300 mg/kg
2 | CCC1(C)CC(=O)NC1=O (centres unmarked) [Ethosuximide] | 250 | 78 ± 13% of control | 5 ± 0 | ineffective | 189 | 
3 | CCCC(CCC)C(=O)[O-].[Na+] [VPA, sodium valproate] |  |  |  |  |  | treatment time after which dominant behavior was significantly reduced (dominant rats): 1 weeks
4 | O=C1NC(=O)C(c2ccccc2)(c2ccccc2)N1 [Phenytoin] | 150 | 209 ± 43% of control | 4.3 ± 0.3 | suppressed seizure activity, but at doses associated with toxicity | 15 | 
5 | Nc1nnc(-c2cccc(Cl)c2Cl)c(N)n1 [LTG, lamotrigine] |  |  |  |  |  | protection against hippocampal kindled seizures [3]: unable to protect against hippocampal kindled seizures; effect on kindling during acquisition phase [4]: no effect on kindling itself; ED50, amygdala kindled seizures ([5]; Cl=4-50 mg/kg): 25 mg/kg; ADD reduced by [5]: 62%; amygdala kindled seizure score [5]: ~2
6 | NC(=O)N1c2ccccc2C=Cc2ccccc21 [Carbamazepine, carbamazepine] | 50 | 72 ± 13% of control | 2.3 ± 0.6 | suppressed seizure activity, but at doses associated with toxicity | 26 | treatment time after which dominant behavior was significantly reduced (dominant rats): 3 weeks
7 | NS(=O)(=O)NCc1csc2ccccc12 [Compound #1, N-(benzo[b]thien-3-ylmethyl)-sulfamide] |  |  |  |  | 100 | treatment time after which reduction of dominant behavior was statistically significant (dominant rats; 1.25 mg/kg p.o. BID, p<0.05): 2 weeks; reduction of dominant behavior (dominance level) (dominant rats; p.o. BID 1.25, 6, 30, 60 mg/kg, FIG. 1): reduced dominant behavior in a dose-dependent manner; treatment time after which reduction of submissive behavior was statistically significant (submissive rats; 30 mg/kg p.o. twice a day, p<0.05): 5 weeks; treatment time after which reduction of submissive behavior was statistically significant (submissive rats; 60 mg/kg p.o. twice a day, p<0.01): 17 days; reduction of submissive behavior (antidepressant) (submissive rats; p.o. twice a day for 5 weeks, 6, 30, 60 mg/kg): reduced submissive behavior (antidepressant) in a dose-dependent manner; seizure score at the conclusion of the drug- and stimulus-free period versus vehicle ([6]; 100 mg/kg i.p. during acquisition, re-challenged in the absence of drug): remained significantly lower; acquisition of the fully generalized kindled seizure ([6]; 100 mg/kg i.p., FIG. 4): prevented the acquisition of the fully generalized kindled seizure; rats protected ([7]; n=11): Five out of eleven; seizure score after treatment ([7]; reduced from a 5): 3.1
